Values of other authors, collected in patent publication US11752152B1, “Pharmaceutical formulations of imatinib and uses thereof” (Exvastat Ltd, priority 2022, dated 2023).

Tested on: animal models of sepsis, acute lung injury and impaired microcirculatory perfusion
Settings: variety of animal models

In the case of `Cc1ccc(NC(=O)c2ccc(CN3CCN(C)CC3)cc2)cc1Nc1nccc(-c2cccnc2)n1` [Imatinib, 4-[(4-methylpiperazin-1-yl)methyl]-N-[4-methyl-3-[(4-pyridin-3-ylpyrimidin-2-yl)amino]phenyl]benzamide], the “effect on endothelial barrier, vascular leak and inflammation” value is listed as “protect the endothelial barrier, prevent vascular leak and reduce inflammation”.
